Assay [1] can be described thus: DPPH radical scavenging activity assay. The note with it: for DPPH Clearance rate: n = 3. In kind it is biochemical. An excerpt:
2,2-Diphenyl-1-picryl hydrazyl (DPPH) is an organic compound composed of a stable organic radical. In the DPPH molecule, due to the presence of multiple electron-withdrawing —NO2 and large π bonds of the benzene ring, nitrogen free radical is stabilized. Its methanol solution is purple and has a maximum absorption peak at 517 nm. After the addition of an antioxidant, DPPH captures an electron to be paired with the free electron, and the purple fades and turns into a yellow substance. The absorption at 517 nm disappears, and the degree of fading is quantitatively related to the number of electrons it captures. Based on this principle, a spectrophotometer is used to detect the change of the absorbance of the DPPH radical and the sample solution, and the ability of the sample to provide hydrogen atoms and scavenge free radicals can be measured.
Preparation of DPPH solution: measuring exact amount of 2,2-diphenyl-1-picryl hydrazyl (DPPH) and dissolving in toluene to prepare a 0.2 mmol/L DPPH solution, stored at 0° C. in dark.
Preparation of test solution: Vc (vitamin C, positive control), compound of formula (I) (sample), silibinin (control) and lipoic acid (control). The sample solution was subjected to gradient dilution with toluene, and three sets of controls were separately dissolved in a test tube with a certain amount of toluene to prepare the same concentration gradient as the sample.
Sample liquid absorbance measurement: Take 2 mL of sample solution (Table 2 Vc, B, C), add 2 mL of DPPH solution with concentration of 2×10^−4 mol/L, mix and react in the dark at room temperature for 30 min, adjust to zero with toluene, and measure at 517 nm. The absorbance Ai was simultaneously measured for the absorbance Aj of 2 mL of toluene mixed with 2 mL of the sample solution and the absorbance Ao of 2 mL of DPPH solution mixed with 2 mL of toluene (the experimental results are shown in Table 3).
clearance rate (%)=[1−(Ai−Aj)/Ao]*100% Clearance calculation: […]

Assay [2] concerns Mice with Alcoholic Liver Injury. The assay is described as follows: Protective effect on alcoholic liver injury in mice (serum ALT, AST, TG). It is filed as in vivo. The note with it: 25 days, ethanol 3 g/kg/day. The procedure:
The compound of formula (I) was prepared by the method of example 7. In order to study its protective effect on alcoholic liver injury in mice, the following animal model was designed.
Three-week-old 30-35 g SPF male mice were randomly divided into normal control group, model group, low-dose group, high-dose group and tiopronin positive control group after adaptive feeding for 3 days. The normal control group and model group were fed with basic feed every day; low dose group and high dose group were fed with basic diet every day and were given the compound of formula (I) of 10 mg/kg/day and 50 mg/kg/day, respectively; tiopronin positive control group was fed with basic feed and 50 mg/kg/day tiopronin. Ethanol 3 g/kg/day (0.01 mL/g) was given to the model group, low dose group, high dose group and tiopronin positive control group. The normal control group was given distilled water of the same volume. After 25 days, fasting for 2 hours after the last administration, glutamic pyruvic transaminase (ALT), glutamic oxaloacetic transaminase (AST) and triglyceride (TG) were measured in serum by decapitation.

SMILES strings stand for the structures.

For `O=C(O)CCCCC1CCSS1` (centres unmarked) [C, Lipoic acid], the “DPPH Clearance rate” value came to 7.27% in assay [1] (1.76 ppm); 8.52% in assay [1] (8.80 ppm); 16.42% in assay [1] (21.12 ppm); 23.54% in assay [1] (42.24 ppm); 36.45% in assay [1] (79.20 ppm); 41.58% in assay [1] (112.64 ppm). For the same compound, the “DPPH Clearance rate” value turned out to be 54.23% in assay [1] (281.60 ppm), 67.82% in assay [1] (492.80 ppm), 72.01% in assay [1] (792.00 ppm) and 73.69% in assay [1] (915.20 ppm).
`COc1cc(C2Oc3cc([C@H]4Oc5cc(O)cc(O)c5C(=O)[C@@H]4O)ccc3OC2COC(=O)CCCCC2CCSS2)ccc1O` (stereo partly drawn) [Compound of Formula (I), (3-(4-hydroxy-3-methoxyphenyl)-6-((2R,3R)-3,5,7-trihydroxy-4-oxochroman-2-yl)-2,3-dihydrobenzo[b][1,4]dioxin-2-yl)methyl 5-(1,2-dithiolan-3-yl)pentanoate]: the ALT in assay [2] (10 mg/kg/day) turned out to be 61.72 ± 10.37 U/L; in assay [2] (50 mg/kg/day), 57.21 ± 2.93 U/L. In addition, the AST in assay [2] (10 mg/kg/day) came to 139.84 ± 18.95 U/L; in assay [2] (50 mg/kg/day) it was 134.56 ± 6.57 U/L. Besides, the TG in assay [2] (10 mg/kg/day) is 0.902 ± 0.19 mmol/L; in assay [2] (50 mg/kg/day), 0.873 ± 0.35 mmol/L. Moreover, the “DPPH Clearance rate” value in assay [1] (1.76 ppm) came to 12.28%; in assay [1] (8.80 ppm), 19.80%; in assay [1] (21.12 ppm) it was 32.16%; in assay [1] (42.24 ppm) it was 43.55%; in assay [1] (79.20 ppm), 69.42%; in assay [1] (112.64 ppm), 78.95%. Besides, the “DPPH Clearance rate” value in assay [1] (281.60 ppm) is 81.21%; in assay [1] (492.80 ppm), 86.70%; in assay [1] (792.00 ppm), 90.06%; in assay [1] (915.20 ppm) it was 93.52%. For the same compound, the “scavenging ability compared with silibinin (B) and lipoic acid (C) alone” value in assay [1] (DPPH free radicals, at the same concentration) was “better”. Further, the “scavenging ability compared with the positive control Vc group” value in assay [1] (DPPH radical) is listed as “slightly weaker”. The “highest scavenging rate of DPPH radical” value in assay [1] (in the determined concentration range) is on record as 93.52%.
For the compound `CC(S)C(=O)NCC(=O)O` (centres unmarked) [Tiopronin, tiopronin, reference compound], in assay [2] (50 mg/kg/day), the ALT is 65.32 ± 8.79 U/L, the AST stood at 141.37 ± 18.75 U/L and the TG came to 1.156 ± 0.33 mmol/L.

Values taken from US11306076B2, “Silibinin lipoic acid ester with hepatoprotective activity and a method of preparing the same” (XI'AN TAIKOMED PHARMACEUTICAL TECHNOLOGY CO., LTD., priority 2020, dated 2022).
